{
  "source": "patent US20080234310A1",
  "about": "“Methods and Compositions for Slowing Aging” (priority 2003, published 2008)",
  "key": {"[1]": {"test_system": "ion channels associated with glutamate receptors", "assay": "Glutamate-induced uptake of 45Ca into rat brain synaptosomes (calcium-blocking properties)", "format": "biochemical", "conditions": "glutamate-induced 45Ca uptake, K(43/21); compound 5 μM; 5 min at 30° C.", "method": "Evaluation of the calcium-blocking properties of the compounds was conducted with P2-fraction of synaptosomes, which were isolated from the brain of newborn (8-11 days) rats according to the protocol described in [Bachurin et al. Neuroprotective and cognition enhancing properties of MK-801 flexible analogs. Structure-activity relationships.//Ann. N.Y. Acad. Sci., 2001, v. 939, pp. 219-235]. In this test, the ability of the compounds to inhibit a specific uptake of calcium ions via ion channels associated with glutamate receptors was determined.\nSynaptosomes were placed into the incubation buffer A (132 mM NaCl, 5 mM KCl, 5 mM HEPES) and were kept at 0° C. during the entire experiment. Aliquots of synaptosomes (50 μl) were placed in the media A, containing investigated compounds and a preparation of the radiolabeled calcium, ^45Ca. The calcium uptake was stimulated by the introduction into the media of the 20 μl of the 10 mM solution of glutamate. After a 5 min incubation at 30° C. the reaction was interrupted by a filtration through GF/B filters, which were then triple washed with the cold buffer B (145 mM KCl, 10 mM tris, 5 mM trilon B). Then, filters were subjects for the detection of the radiolabeled calcium. The measurement was conducted using a scintillation counter ‘SL-4000 Intertechnic”. The initial screening was conducted with a concentration of each compound of 5 μM. A specific calcium uptake was calculated using the following equation\nwhere: • Ca1 is a calcium uptake in a control experiment (no glutamate or test compound added); • Ca2 is a calcium uptake in the presence of glutamate only (Glutamate Induced Calcium Uptake—GICU); • Ca3 is a calcium uptake in the presence of a test compound only (no glutamate added); Ca4 is a calcium uptake in the presence of both glutamate and a test compound."}, "[2]": {"test_system": "C57/B female mice", "assay": "Lifespan: amount of alive animals depending on age, Dimebon in drinking water", "format": "in vivo", "conditions": "for Amount of alive animals: 3 mg/kg daily in water", "method": "(§1) Experiments were conducted with C57/B female mice, starting from their age of 12 months. Mice were kept on cells, 10 animals per a cell. Both control and experimental group included 50 animals in each group. […] The day-night cycle was 12 hours.\n(§2) Prior to the experiment, daily and weekly water consumption by the animals in one cell was measured. Dimebon was added in water in such amount that each animal would consume 3 mg/kg of Dimebon per day in average. Bottles with water containing Dimebon were replaced every 7 days. Animals in the control group were receiving pure water.\n(§3) Prior to the experiment, all the animals were weighed, and an average weight was determined in every group, every cell, as well as the weight of all animals in every cell. The condition of skin, hair, and eyes were also determined by visual inspection. […] Evaluation of all these parameters was conducted on a monthly basis.\n(§4) Statistics was calculated using Student T-test and ‘ Chi-squared’ criteria.\nEvaluation of the parameter of the length of life was conducted employing methods used in demography. This parameter was a probability of death in every age group."}, "[3]": {"assay": "Dynamics in weight of animals depending on age and Dimebon consumption", "format": "in vivo, mice", "conditions": "for average weight of animals: 3 mg/kg daily in water", "method": "as §1, §2, §3, §4"}, "[4]": {"test_system": "C57/B female mice", "assay": "Vision disturbances (development of age-related cataract) depending on age and Dimebon consumption", "format": "in vivo", "conditions": "for amount of animals that have cataract: 3 mg/kg daily in water", "method": "as §1, §2, §3, §4"}, "[5]": {"test_system": "C57/B female mice", "assay": "Disturbances in skin-hair integument (alopecia) depending on age and Dimebon consumption", "format": "in vivo", "conditions": "for % of animals that have alopecia: 3 mg/kg daily in water", "method": "as §1, §2, §3, §4"}},
  "data": [
    {"molecule": "Cc1ccc2c(c1)c1c(n2Cc2ccccc2)CCN(C)C1.Cl.Cl", "note": "[Compound 4, 2,8-dimethyl-5-benzyl-2,3,4,5-tetrahydro-1H-pyrido(4,3-b)indol dihydrochloride]", "values": [
      {"measurement": "% Ca to control", "setting": "[1]", "result": "22.5 ± 3.5", "unit": "%"}
    ]},
    {"molecule": "2-methyl-5-(2-(6-methyl-3-pyridyl)-ethyl)-2,3,4,5-tetrahydro-1H-pyrido(4,3-b)indol sesquisulfate monohydrate [Compound 5]", "values": [
      {"measurement": "% Ca to control", "setting": "[1]", "result": "33.5 ± 1.5", "unit": "%"}
    ]},
    {"molecule": "c1ccc(CN2CCc3[nH]c4ccccc4c3C2)cc1", "note": "[Compound 3, 2-benzyl-2,3,4,5-tetrahydro-1H-pyrido(4,3-b)indol]", "values": [
      {"measurement": "% Ca to control", "setting": "[1]", "result": "28.5 ± 2.5", "unit": "%"}
    ]},
    {"molecule": "CCN1CCc2[nH]c3ccccc3c2C1", "note": "[Compound 2, 2-ethyl-2,3,4,5-tetrahydro-1H-pyrido(4,3-b)indol]", "values": [
      {"measurement": "% Ca to control", "setting": "[1]", "result": "36.5 ± 0.5", "unit": "%"}
    ]},
    {"molecule": "CN1CCc2[nH]c3ccc(Br)cc3c2C1.Cl", "note": "[Compound 9, 2-methyl-8-bromo-2,3,4,5-tetrahydro-1H-pyrido(4,3-b)indol hydrochloride]", "values": [
      {"measurement": "% Ca to control", "setting": "[1]", "result": "30.0 ± 3.5", "unit": "%"}
    ]},
    {"molecule": "Cc1ccc2c(c1)c1c(n2CCc2ccc(C)nc2)CCN(C)C1.Cl.Cl", "note": "[Compound 6, 2,8-dimethyl-5-(2-(6-methyl-3-pyridyl)-ethyl)-2,3,4,5-tetrahydro-1H-pyrido(4,3-b)indol dihydrochloride]", "values": [
      {"measurement": "% Ca to control", "setting": "[1]", "result": "48.5 ± 2.5", "unit": "%"},
      {"measurement": "Amount of alive animals", "setting": "[2]; age 12 months (start), 50 animals per group", "result": 50},
      {"measurement": "Amount of alive animals", "setting": "[2]; age 13 months", "result": 50},
      {"measurement": "Amount of alive animals", "setting": "[2]; age 14 months", "result": 49},
      {"measurement": "Amount of alive animals", "setting": "[2]; age 15 months", "result": 48},
      {"measurement": "Amount of alive animals", "setting": "[2]; age 16 months", "result": 47},
      {"measurement": "Amount of alive animals", "setting": "[2]; age 17 months", "result": 47},
      {"measurement": "Amount of alive animals", "setting": "[2]; age 18 months", "result": 42},
      {"measurement": "Amount of alive animals", "setting": "[2]; age 19 months", "result": 39},
      {"measurement": "Amount of alive animals", "setting": "[2]; age 20 months", "result": 35},
      {"measurement": "Amount of alive animals", "setting": "[2]; age 21 months", "result": 32},
      {"measurement": "Amount of alive animals", "setting": "[2]; age 22 months", "result": 28},
      {"measurement": "Amount of alive animals", "setting": "[2]; age 23 months", "result": 25},
      {"measurement": "Amount of alive animals", "setting": "[2]; age 24 months", "result": 18},
      {"measurement": "Amount of alive animals", "setting": "[2]; age 25 months", "result": 11},
      {"measurement": "probability of death versus control group", "setting": "[2]; all age groups, 3 mg/kg daily, significant (P<0.05) at 20-23 months", "result": "lower"},
      {"measurement": "age-related weight depletion", "setting": "[3]; 3 mg/kg daily, depletion only in 23 month old animals, variation versus control not significant (P>0.05)", "result": "No weight depletion was observed"},
      {"measurement": "average weight of animals", "setting": "[3]; age 12 months (start)", "result": 24.7, "unit": "g"},
      {"measurement": "average weight of animals", "setting": "[3]; age 13 months", "result": 24.7, "unit": "g"},
      {"measurement": "average weight of animals", "setting": "[3]; age 14 months", "result": 24.7, "unit": "g"},
      {"measurement": "average weight of animals", "setting": "[3]; age 15 months", "result": 26, "unit": "g"},
      {"measurement": "average weight of animals", "setting": "[3]; age 16 months", "result": 25.5, "unit": "g"},
      {"measurement": "average weight of animals", "setting": "[3]; age 17 months", "result": 24.7, "unit": "g"},
      {"measurement": "average weight of animals", "setting": "[3]; age 18 months", "result": 25.5, "unit": "g"},
      {"measurement": "average weight of animals", "setting": "[3]; age 19 months", "result": 26, "unit": "g"},
      {"measurement": "average weight of animals", "setting": "[3]; age 20 months", "result": 26, "unit": "g"},
      {"measurement": "average weight of animals", "setting": "[3]; age 21 months", "result": 25.6, "unit": "g"},
      {"measurement": "average weight of animals", "setting": "[3]; age 22 months", "result": 25.1, "unit": "g"},
      {"measurement": "average weight of animals", "setting": "[3]; age 23 months", "result": 24.7, "unit": "g"},
      {"measurement": "average weight of animals", "setting": "[3]; age 24 months", "result": 24, "unit": "g"},
      {"measurement": "average weight of animals", "setting": "[3]; age 25 months", "result": 23.7, "unit": "g"},
      {"measurement": "amount of animals that had cataract versus control group", "setting": "[4]; 3 mg/kg daily, P<0.05 for 13 to 20 months old mice", "result": "significantly less"},
      {"measurement": "amount of animals that have cataract", "setting": "[4]; age 12 months (start)", "result": 0, "unit": "%"},
      {"measurement": "amount of animals that have cataract", "setting": "[4]; age 13 months", "result": 0, "unit": "%"},
      {"measurement": "amount of animals that have cataract", "setting": "[4]; age 14 months", "result": 0, "unit": "%"},
      {"measurement": "amount of animals that have cataract", "setting": "[4]; age 15 months", "result": 4, "unit": "%"},
      {"measurement": "amount of animals that have cataract", "setting": "[4]; age 16 months", "result": 6, "unit": "%"},
      {"measurement": "amount of animals that have cataract", "setting": "[4]; age 17 months", "result": 6, "unit": "%"},
      {"measurement": "amount of animals that have cataract", "setting": "[4]; age 18 months", "result": 10, "unit": "%"},
      {"measurement": "amount of animals that have cataract", "setting": "[4]; age 19 months", "result": 13, "unit": "%"},
      {"measurement": "amount of animals that have cataract", "setting": "[4]; age 20 months", "result": 17, "unit": "%"},
      {"measurement": "amount of animals that have cataract", "setting": "[4]; age 21 months", "result": 25, "unit": "%"},
      {"measurement": "% of animals that have alopecia", "setting": "[5]; age 12 months (start)", "result": 0, "unit": "%"},
      {"measurement": "% of animals that have alopecia", "setting": "[5]; age 13 months", "result": 0, "unit": "%"},
      {"measurement": "% of animals that have alopecia", "setting": "[5]; age 14 months", "result": 2, "unit": "%"},
      {"measurement": "% of animals that have alopecia", "setting": "[5]; age 15 months", "result": 6, "unit": "%"},
      {"measurement": "% of animals that have alopecia", "setting": "[5]; age 16 months", "result": 10, "unit": "%"},
      {"measurement": "% of animals that have alopecia", "setting": "[5]; age 17 months", "result": 20, "unit": "%"},
      {"measurement": "% of animals that have alopecia", "setting": "[5]; age 18 months", "result": 12, "unit": "%"},
      {"measurement": "% of animals that have alopecia", "setting": "[5]; age 19 months", "result": 14, "unit": "%"},
      {"measurement": "% of animals that have alopecia", "setting": "[5]; age 20 months", "result": 34, "unit": "%"},
      {"measurement": "% of animals that have alopecia", "setting": "[5]; age 21 months", "result": 35, "unit": "%"},
      {"measurement": "development of non-fatal pathologies, such as loss of vision and alopecia", "setting": "[5]; old animals fed Dimebon 3 mg/kg daily, alopecia difference 13th-21st month P<0.05", "result": "slowing of the development"}
    ]},
    {"molecule": "CN1CCc2[nH]c3ccccc3c2C1", "note": "[Compound 7, 2-methyl-2,3,4,5-tetrahydro-1H-pyrido(4,3-b)indol]", "values": [
      {"measurement": "% Ca to control", "setting": "[1]", "result": "35.5 ± 2.5", "unit": "%"}
    ]},
    {"molecule": "2-dimethyl-2,3,4,5-tetrahydro-1H-pyrido(4,3-b)indol methyl iodide [Compound 8]", "values": [
      {"measurement": "% Ca to control", "setting": "[1]", "result": "18.0 ± 2.5", "unit": "%"}
    ]}
  ]
}
